We go through 15 compounds from patent US20180244611A1, “Modulators of the Cystic Fibrosis Transmembrane Conductance Regulator Protein and Methods of Use” (AbbVie S.à.r.l., priority 2017, published 2018).

As usually defined, the Emax is the size of the effect at its maximum, as opposed to the concentration needed. In general, EC50 refers to the concentration needed to bring the measured effect to its halfway point.

In test [1] the target is T1, F508delCFTR (Homo sapiens, UniProt P13569, DEL508-508).
T1 construct: expressed in transfected cells; host or cells: CFBE41o- human lung-derived epithelial cells (CFBE41o-F508delCFTR-HRP), doxycycline-inducible
T1 sequence (P13569 with tags, fused parts or gaps DEL508-508): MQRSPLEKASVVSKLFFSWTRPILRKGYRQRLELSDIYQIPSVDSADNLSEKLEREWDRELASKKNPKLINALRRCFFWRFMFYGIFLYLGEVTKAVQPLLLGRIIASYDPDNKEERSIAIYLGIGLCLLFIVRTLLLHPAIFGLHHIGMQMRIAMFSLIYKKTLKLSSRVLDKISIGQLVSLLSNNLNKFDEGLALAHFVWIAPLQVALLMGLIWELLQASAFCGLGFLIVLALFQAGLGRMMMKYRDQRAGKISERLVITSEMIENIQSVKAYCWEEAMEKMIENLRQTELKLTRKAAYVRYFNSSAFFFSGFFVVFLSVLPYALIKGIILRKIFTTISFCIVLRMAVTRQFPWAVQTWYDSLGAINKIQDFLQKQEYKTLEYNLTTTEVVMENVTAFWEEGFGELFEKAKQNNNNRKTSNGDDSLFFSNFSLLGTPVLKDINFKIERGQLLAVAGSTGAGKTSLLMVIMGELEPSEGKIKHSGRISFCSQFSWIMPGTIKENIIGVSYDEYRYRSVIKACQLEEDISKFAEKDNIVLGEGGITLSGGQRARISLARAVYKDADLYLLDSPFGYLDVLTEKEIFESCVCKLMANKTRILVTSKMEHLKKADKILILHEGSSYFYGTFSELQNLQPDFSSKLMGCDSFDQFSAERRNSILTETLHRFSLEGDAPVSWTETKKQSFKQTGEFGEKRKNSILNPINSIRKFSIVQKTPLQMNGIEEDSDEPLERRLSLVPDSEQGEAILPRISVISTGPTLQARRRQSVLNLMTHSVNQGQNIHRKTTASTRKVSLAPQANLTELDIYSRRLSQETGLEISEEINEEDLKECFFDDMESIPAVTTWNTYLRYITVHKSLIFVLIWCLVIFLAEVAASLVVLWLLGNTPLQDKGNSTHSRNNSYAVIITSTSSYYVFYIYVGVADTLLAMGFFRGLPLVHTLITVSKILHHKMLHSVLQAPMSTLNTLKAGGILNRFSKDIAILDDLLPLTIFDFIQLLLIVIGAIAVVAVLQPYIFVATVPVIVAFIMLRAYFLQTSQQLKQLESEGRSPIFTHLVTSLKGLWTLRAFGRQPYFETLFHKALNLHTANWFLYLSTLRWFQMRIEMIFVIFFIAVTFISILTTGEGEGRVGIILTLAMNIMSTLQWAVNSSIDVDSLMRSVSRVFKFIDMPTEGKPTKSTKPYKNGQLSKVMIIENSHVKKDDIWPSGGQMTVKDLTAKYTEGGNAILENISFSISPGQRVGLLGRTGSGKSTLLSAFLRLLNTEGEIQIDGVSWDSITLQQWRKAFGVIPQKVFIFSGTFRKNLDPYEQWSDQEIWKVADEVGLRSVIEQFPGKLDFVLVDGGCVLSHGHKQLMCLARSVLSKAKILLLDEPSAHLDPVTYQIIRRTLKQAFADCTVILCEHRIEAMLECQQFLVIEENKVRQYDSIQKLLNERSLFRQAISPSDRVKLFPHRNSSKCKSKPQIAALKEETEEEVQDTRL
As to the kind of experiment: Cell Surface Expression-Horse Radish Peroxidase (CSE-HRP) assay, test compound without co-corrector.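 As to Emax: percent of on-plate 2 µM positive control corrector response over DMSO.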 Format: cell-based. The settings on record: for Emax: maximum at any tested concentration, without co-corrector; for EC50: test compound without co-corrector. The method in brief:
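CFBE41o- cells expressing F508delCFTR with HRP in the fourth exofacial loop, induced with 0.5 μg/mL doxycycline for 72 h at 37° C, then exposed to compound alone for 18-24 h at 33° C, 8-point 3-fold series from 20 μM. Surface HRP read by luminol luminescence, normalized to positive corrector control versus DMSO; EC50 from variable-slope sigmoidal fit of three replicate plates.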

Test [2] addresses T1, F508delCFTR. The test is described as follows: Cell Surface Expression-Horse Radish Peroxidase (CSE-HRP) assay, test compound with co-corrector.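 As to Maximum % activity (with co-corrector): percent of 2 µM positive control corrector over DMSO; co-corrector is that same compound.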 Format: cell-based. The conditions noted are these: for Maximum % activity (with co-corrector): maximum at any tested concentration. The method in brief:
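CFBE41o- cells expressing F508delCFTR with HRP in the fourth exofacial loop, induced with 0.5 μg/mL doxycycline for 72 h, then treated 18-24 h at 33° C. with compound (8 points, top 20 μM, 3-fold) plus 2 μM co-corrector. Surface HRP read by luminol luminescence; activity normalised to positive control, EC50 from variable-slope sigmoidal fit.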

Setting [3] is: normalized to positive control, with 2 μM co-corrector.
The mark [4] stands for this setting: normalized to on-plate positive control.
[5] abbreviates: CSE-HRP assay, test compound with 2 μM co-corrector.
Setting [6] is: normalized to on-plate positive control, with 2 μM co-corrector.

Consider `COc1ccc(OC)c2c1CC[C@@H]2C(=O)NS(=O)(=O)c1cccc2ccccc12` [Example I-89, (1S)-4,7-dimethoxy-N-(naphthalene-1-sulfonyl)-2,3-dihydro-1H-indene-1-carboxamide], for which the Emax on F508delCFTR [1] (normalized to positive control) was 50 to 150%. Besides, the concentration for a half-maximal effect (EC50) on F508delCFTR [1] and on F508delCFTR [2] (with 2 μM co-corrector) was 3 to 10 µM in each case. Further, on F508delCFTR [2] (setting [3]), the “Maximum % activity (with co-corrector)” value was “++ (≥150 and <350)”.

On F508delCFTR [1] (normalized to positive control), `COc1ccc(C2CCC2)c2c1[C@H](C(=O)NS(=O)(=O)c1cccn3nccc13)CC2` [Example I-151, (1R)-4-cyclobutyl-7-methoxy-N-(pyrazolo[1,5-a]pyridine-4-sulfonyl)-2,3-dihydro-1H-indene-1-carboxamide] registered an Emax of at least 150%. Further, the concentration giving a half-maximal response (EC50) at F508delCFTR [1] was 3 to 10 µM; on F508delCFTR [2] (with 2 μM co-corrector), below 3 µM. The “Maximum % activity (with co-corrector)” value at F508delCFTR [2] (setting [3]) was “+++ (≥350)”.

With `CCC1(C(=O)NS(=O)(=O)c2ccc3ccccc3c2)CCc2c(Cl)cccc21` (stereo not drawn) [II-65], on F508delCFTR [1] (normalized to positive control), the Emax is below 50%. For the same compound, the EC50 at F508delCFTR [1] and at F508delCFTR [2] (with 2 μM co-corrector) was 3 to 10 µM in each case. Besides, on F508delCFTR [2] (setting [3]), the “Maximum % activity (with co-corrector)” value was “++ (≥150 and <350)”.

Take `COCCn1cc(S(=O)(=O)NC(=O)C2CCc3c(OC)cccc32)cn1` (stereo not drawn) [III-78]: the Emax at F508delCFTR [1] (normalized to positive control) was below 50%. Moreover, the EC50 at F508delCFTR [1] and on F508delCFTR [2] (with 2 μM co-corrector) was at least 10 µM throughout. Besides, on F508delCFTR [2] (setting [3]), the “Maximum % activity (with co-corrector)” value is reported as “+ (<150)”.

As to `CCC1(C(=O)NS(=O)(=O)c2ccccc2C(F)(F)F)CCc2c(Cl)cccc21` (stereo not drawn) [III-122], the concentration giving a half-maximal response (EC50) at F508delCFTR [1] (CSE-HRP assay) and at F508delCFTR [2] (setting [5]) was at least 10 µM each time. This compound registered an Emax at F508delCFTR [1] (setting [4]) below 50%. Moreover, the “Maximum % activity (with co-corrector)” value at F508delCFTR [2] (setting [6]) is reported as “+ (<150)”.

For `COc1cccc2c1CCC2C(=O)NS(=O)(=O)c1ccc(Cl)cc1Cl` (stereo not drawn) [III-37], the Emax on F508delCFTR [1] (normalized to positive control) was below 50%. Besides, the concentration for a half-maximal effect (EC50) at F508delCFTR [1] and on F508delCFTR [2] (with 2 μM co-corrector) was at least 10 µM throughout. Further, at F508delCFTR [2] (setting [3]), the “Maximum % activity (with co-corrector)” value is on record as “+ (<150)”.

Regarding `COc1ccccc1S(=O)(=O)NC(=O)C1CCc2c(OC)cccc21` (stereo not drawn) [III-12], the Emax on F508delCFTR [1] (normalized to positive control) was below 50%. Moreover, the EC50 was at least 10 µM at F508delCFTR [1] and 3 to 10 µM at F508delCFTR [2] (with 2 μM co-corrector). Further, the “Maximum % activity (with co-corrector)” value on F508delCFTR [2] (setting [3]) is reported as “+ (<150)”.

Turning to `COc1ccc2c(c1)[C@](C)(C(=O)NS(=O)(=O)c1cccc3ccccc13)CC2` [Example I-23, (1R)-6-methoxy-1-methyl-N-(naphthalene-1-sulfonyl)-2,3-dihydro-1H-indene-1-carboxamide], on F508delCFTR [1] (normalized to positive control), the Emax is at least 150%. Besides, the EC50 was 3 to 10 µM at F508delCFTR [1] and below 3 µM at F508delCFTR [2] (with 2 μM co-corrector). The “Maximum % activity (with co-corrector)” value at F508delCFTR [2] (setting [3]) is given as “+++ (≥350)”.

`COc1ccc(-c2ccc(C(F)(F)F)nc2)c2c1CCCC2C(=O)NS(=O)(=O)c1cccc2ccccc12` (stereo not drawn) [II-129] displayed an Emax on F508delCFTR [1] (normalized to positive control) of at least 150%. Further, the half-maximal effective concentration (EC50) on F508delCFTR [1] and on F508delCFTR [2] (with 2 μM co-corrector) was below 3 µM each time. Besides, the “Maximum % activity (with co-corrector)” value on F508delCFTR [2] (setting [3]) is listed as “+++ (≥350)”.

As to `COc1ccccc1S(=O)(=O)NC(=O)C1CCc2c(Cl)cccc21` (stereo not drawn) [III-18], the Emax at F508delCFTR [1] (normalized to positive control) was below 50%. Moreover, the 50% effective concentration (EC50) on F508delCFTR [1] and at F508delCFTR [2] (with 2 μM co-corrector) was at least 10 µM throughout. Besides, the “Maximum % activity (with co-corrector)” value at F508delCFTR [2] (setting [3]) is “+ (<150)”.

As to `COc1ccc(Br)c2c1C(C(=O)NS(=O)(=O)c1cccc3c(O)cccc13)CC2` (stereo not drawn) [Example I-105, 4-bromo-N-(5-hydroxynaphthalene-1-sulfonyl)-7-methoxy-2,3-dihydro-1H-indene-1-carboxamide], on F508delCFTR [1] (normalized to positive control), the Emax is at least 150%. For the same compound, the EC50 on F508delCFTR [1] was 3 to 10 µM; on F508delCFTR [2] (with 2 μM co-corrector) it was below 3 µM. In addition, the “Maximum % activity (with co-corrector)” value on F508delCFTR [2] (setting [3]) is “+++ (≥350)”.

Consider `COc1ccc(Br)c2c1C(C(=O)NS(=O)(=O)c1cccc3c(C(=O)O)cccc13)CC2` (stereo not drawn) [III-181], for which the EC50 is at least 10 µM at F508delCFTR [1] (CSE-HRP assay) and 3 to 10 µM on F508delCFTR [2] (setting [5]). For the same compound, on F508delCFTR [1] (setting [4]), the Emax is below 50%. The “Maximum % activity (with co-corrector)” value at F508delCFTR [2] (setting [6]) was “++ (≥150 and <350)”.

For the compound `COc1cccc2c1CCC2C(=O)NS(=O)(=O)c1cc(F)ccc1Cl` (stereo not drawn) [III-75], the Emax on F508delCFTR [1] (normalized to positive control) is below 50%. Also, the EC50 on F508delCFTR [1] and on F508delCFTR [2] (with 2 μM co-corrector) was at least 10 µM each time. At F508delCFTR [2] (setting [3]), the “Maximum % activity (with co-corrector)” value is reported as “+ (<150)”.

In turn, `CCOC(=O)c1ccc(S(=O)(=O)NC(=O)C2CCc3c(OC)cccc32)cc1` (stereo not drawn) [III-48] registered an Emax on F508delCFTR [1] (normalized to positive control) below 50%. Also, the EC50 on F508delCFTR [1] and at F508delCFTR [2] (with 2 μM co-corrector) was at least 10 µM each time. On F508delCFTR [2] (setting [3]), the “Maximum % activity (with co-corrector)” value is “+ (<150)”.

On to `CCC1(C(=O)NS(=O)(=O)c2cccc3ccccc23)Cc2cccc(OC)c21` (stereo not drawn) [II-118], for which, on F508delCFTR [1] (normalized to positive control), the maximum response (Emax) is at least 150%. The concentration giving a half-maximal response (EC50) was 3 to 10 µM at F508delCFTR [1] and below 3 µM on F508delCFTR [2] (with 2 μM co-corrector). Further, the “Maximum % activity (with co-corrector)” value on F508delCFTR [2] (setting [3]) is listed as “+++ (≥350)”.
